Results as given in PubChem BioAssay (NCI).
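48-hour exposure; five concentrations; linearly interpolated endpoints. TGI: concentration producing complete growth inhibition.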

What was measured:
Experiment in all cases: NCI anticancer screen, dose series, 48 h
SK-OV-3 ovarian = system: SK-OV-3 ovarian
SNB-19 CNS = system: SNB-19 CNS
KM12 colon = system: KM12 colon
OVCAR-8 ovarian = system: OVCAR-8 ovarian
EKVX NSCLC = system: EKVX NSCLC
U251 CNS = system: U251 CNS
A549 NSCLC = system: A549 NSCLC
HCT-15 colon = system: HCT-15 colon
HT29 colon = system: HT29 colon
SN12C renal = system: SN12C renal
MALME-3M melanoma = system: MALME-3M melanoma
NCI-H23 lung = system: NCI-H23 lung
MDA-MB-435 = system: MDA-MB-435
IGROV1 ovarian = system: IGROV1 ovarian
NCI/ADR-RES ovarian = system: NCI/ADR-RES ovarian
K-562 leukemia = system: K-562 leukemia
NCI-H522 lung = system: NCI-H522 lung
HS 578T breast = system: HS 578T breast
BT-549 breast = system: BT-549 breast
MDA-MB-231 breast = system: MDA-MB-231 breast
SR leukemia = system: SR leukemia
HOP-62 NSCLC = system: HOP-62 NSCLC
MOLT-4 leukemia = system: MOLT-4 leukemia
PC-3 prostate = system: PC-3 prostate
MCF7 breast = system: MCF7 breast
OVCAR-3 ovarian = system: OVCAR-3 ovarian
SF-268 CNS = system: SF-268 CNS
T-47D breast = system: T-47D breast
SK-MEL-28 melanoma = system: SK-MEL-28 melanoma
OVCAR-5 ovarian = system: OVCAR-5 ovarian
SF-539 CNS = system: SF-539 CNS
A498 renal = system: A498 renal
COLO 205 colon = system: COLO 205 colon
HL-60(TB) leukemia = system: HL-60(TB) leukemia
OVCAR-4 ovarian = system: OVCAR-4 ovarian
NCI-H460 lung = system: NCI-H460 lung
SK-MEL-5 melanoma = system: SK-MEL-5 melanoma
RXF 393 renal = system: RXF 393 renal
UACC-257 melanoma = system: UACC-257 melanoma
UO-31 renal = system: UO-31 renal
MDA-N = system: MDA-N
M14 melanoma = system: M14 melanoma
CCRF-CEM leukemia = system: CCRF-CEM leukemia
SK-MEL-2 melanoma = system: SK-MEL-2 melanoma
SF-295 CNS = system: SF-295 CNS
786-0 renal = system: 786-0 renal
DU-145 prostate = system: DU-145 prostate
SNB-75 CNS = system: SNB-75 CNS
SW-620 colon = system: SW-620 colon
CAKI-1 renal = system: CAKI-1 renal
HCT-116 colon = system: HCT-116 colon
RPMI-8226 leukemia = system: RPMI-8226 leukemia
UACC-62 melanoma = system: UACC-62 melanoma
ACHN renal = system: ACHN renal
LOX IMVI melanoma = system: LOX IMVI melanoma
HOP-92 NSCLC = system: HOP-92 NSCLC
HCC-2998 colon = system: HCC-2998 colon
NCI-H226 lung = system: NCI-H226 lung
TK-10 renal = system: TK-10 renal

COc1nc(C#CC2(O)CCCCC2)nc(OC)n1
TGI (SK-OV-3 ovarian): > 100 µM | TGI (SNB-19 CNS): > 100 µM | TGI (KM12 colon): 30.2 µM | TGI (OVCAR-8 ovarian): 39.8 µM | TGI (EKVX NSCLC): 35.6 µM | TGI (U251 CNS): 26.4 µM | TGI (A549 NSCLC): 28.1 µM | TGI (HCT-15 colon): 15.6 µM | TGI (HT29 colon): 45.4 µM | TGI (SN12C renal): 26.6 µM | TGI (MALME-3M melanoma): 15.3 µM | TGI (NCI-H23 lung): 27.1 µM | TGI (MDA-MB-435): 18.8 µM | TGI (IGROV1 ovarian): 23.1 µM | TGI (NCI/ADR-RES ovarian): 68.9 µM | TGI (K-562 leukemia): > 100 µM | TGI (NCI-H522 lung): 21.9 µM | TGI (HS 578T breast): 44.8 µM | TGI (BT-549 breast): 28 µM | TGI (MDA-MB-231 breast): 15 µM | TGI (SR leukemia): 17.4 µM | TGI (HOP-62 NSCLC): 91 µM | TGI (MOLT-4 leukemia): > 100 µM | TGI (PC-3 prostate): 18.5 µM | TGI (MCF7 breast): 19.4 µM | TGI (OVCAR-3 ovarian): 20.4 µM | TGI (SF-268 CNS): 40.7 µM | TGI (T-47D breast): > 100 µM | TGI (SK-MEL-28 melanoma): 30.2 µM | TGI (OVCAR-5 ovarian): 25.4 µM | TGI (SF-539 CNS): 23.3 µM | TGI (A498 renal): 31.2 µM | TGI (COLO 205 colon): 45.5 µM | TGI (HL-60(TB) leukemia): 16.3 µM | TGI (OVCAR-4 ovarian): 4.44 µM | TGI (NCI-H460 lung): 78.6 µM | TGI (SK-MEL-5 melanoma): 20.2 µM | TGI (RXF 393 renal): 27 µM | TGI (UACC-257 melanoma): 31.7 µM | TGI (UO-31 renal): 15.1 µM | TGI (MDA-N): 26.3 µM | TGI (M14 melanoma): 38.3 µM | TGI (CCRF-CEM leukemia): 48.6 µM | TGI (SK-MEL-2 melanoma): 27 µM | TGI (SF-295 CNS): 60.4 µM | TGI (786-0 renal): > 100 µM | TGI (DU-145 prostate): 19.6 µM | TGI (SNB-75 CNS): 40.3 µM | TGI (SW-620 colon): 24.1 µM | TGI (CAKI-1 renal): 15.9 µM | TGI (HCT-116 colon): > 100 µM | TGI (RPMI-8226 leukemia): 10.5 µM | TGI (UACC-62 melanoma): 20.2 µM | TGI (ACHN renal): 21.9 µM | TGI (LOX IMVI melanoma): 11.7 µM

O=C(O)c1cc2ccc3ccccc3c2oc1=O
TGI (SK-OV-3 ovarian): > 100 µM | TGI (SNB-19 CNS): > 100 µM | TGI (KM12 colon): > 100 µM | TGI (OVCAR-8 ovarian): > 100 µM | TGI (EKVX NSCLC): > 100 µM | TGI (U251 CNS): > 100 µM | TGI (A549 NSCLC): > 100 µM | TGI (HCT-15 colon): > 100 µM | TGI (HT29 colon): > 100 µM | TGI (SN12C renal): > 100 µM | TGI (MALME-3M melanoma): > 100 µM | TGI (NCI-H23 lung): > 100 µM | TGI (MDA-MB-435): > 100 µM | TGI (IGROV1 ovarian): > 100 µM | TGI (NCI/ADR-RES ovarian): > 100 µM | TGI (K-562 leukemia): > 100 µM | TGI (NCI-H522 lung): > 100 µM | TGI (HOP-92 NSCLC): > 100 µM | TGI (HS 578T breast): > 100 µM | TGI (BT-549 breast): > 100 µM | TGI (MDA-MB-231 breast): > 100 µM | TGI (SR leukemia): > 100 µM | TGI (HOP-62 NSCLC): > 100 µM | TGI (MOLT-4 leukemia): > 100 µM | TGI (PC-3 prostate): > 100 µM | TGI (MCF7 breast): > 100 µM | TGI (OVCAR-3 ovarian): > 100 µM | TGI (SF-268 CNS): > 100 µM | TGI (T-47D breast): > 100 µM | TGI (SK-MEL-28 melanoma): > 100 µM | TGI (OVCAR-5 ovarian): > 100 µM | TGI (SF-539 CNS): > 100 µM | TGI (A498 renal): > 100 µM | TGI (COLO 205 colon): > 100 µM | TGI (HL-60(TB) leukemia): > 100 µM | TGI (OVCAR-4 ovarian): > 100 µM | TGI (NCI-H460 lung): > 100 µM | TGI (SK-MEL-5 melanoma): > 100 µM | TGI (RXF 393 renal): > 100 µM | TGI (UACC-257 melanoma): > 100 µM | TGI (UO-31 renal): > 100 µM | TGI (HCC-2998 colon): > 100 µM | TGI (MDA-N): > 100 µM | TGI (M14 melanoma): > 100 µM | TGI (CCRF-CEM leukemia): > 100 µM | TGI (SK-MEL-2 melanoma): > 100 µM | TGI (NCI-H226 lung): > 100 µM | TGI (SF-295 CNS): > 100 µM | TGI (786-0 renal): > 100 µM | TGI (SNB-75 CNS): > 100 µM | TGI (SW-620 colon): > 100 µM | TGI (HCT-116 colon): > 100 µM | TGI (RPMI-8226 leukemia): > 100 µM | TGI (TK-10 renal): > 100 µM | TGI (UACC-62 melanoma): > 100 µM | TGI (ACHN renal): > 100 µM | TGI (LOX IMVI melanoma): > 100 µM
